Reference: ChEMBL document CHEMBL1201862, “PubChem BioAssay data set” (2004)
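96-well plates; 48 h exposure; 5 concentrations. Endpoints by linear interpolation between flanking doses. Not reached: highest tested concentration assigned. At the GI50, growth is halved.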 Calls of active or inactive are those of the source. Cut-off read from the data, not from the text of the source: active = GI50 up to about 1.1 µM and inactive = higher.

Legend:
Experiment in all cases: growth of human tumour cells (NCI), 48 h
CCRF-CEM = test system: CCRF-CEM
HL-60 = test system: HL-60
KM12 = test system: KM12
M14 = test system: M14
NCI-H23 = test system: NCI-H23
NCI-H522 = test system: NCI-H522
SF-268 = test system: SF-268
SF-295 = test system: SF-295
SK-MEL-28 = test system: SK-MEL-28
SN12C = test system: SN12C
SNB-75 = test system: SNB-75
TK-10 = test system: TK-10
UACC-257 = test system: UACC-257
UO-31 = test system: UO-31
A498 = test system: A498
EKVX = test system: EKVX
SNB-19 = test system: SNB-19
HCC 2998 = test system: HCC 2998

Measured: GI50

Oc1cc(-c2ccccc2)c2ccccc2n1
inactive: CCRF-CEM 60.8 µM | HL-60 88.1 µM | KM12 71.4 µM | M14 41.8 µM | NCI-H23 84.7 µM | NCI-H522 20.9 µM | SF-268 52.6 µM | SF-295 87.9 µM | SK-MEL-28 37.3 µM | SN12C 30.9 µM | SNB-75 13 µM | TK-10 38.6 µM | UACC-257 61 µM | UO-31 15.1 µM

[N-]=[N+]=Nc1ccc(CCN2CCN(c3cccc(C(F)(F)F)c3)CC2)cc1I
inactive: A498 > 100 µM | CCRF-CEM 54.1 µM | EKVX > 100 µM | HL-60 12.8 µM | KM12 43.8 µM | M14 > 100 µM | NCI-H23 46.6 µM | NCI-H522 27.7 µM | SF-268 > 100 µM | SF-295 > 100 µM | SK-MEL-28 > 100 µM | SN12C 49 µM | SNB-19 > 100 µM | SNB-75 41.7 µM | TK-10 > 100 µM | UACC-257 96.8 µM | UO-31 21.1 µM

Cc1ccc(C)c2sc3cc(=O)ccc-3nc12
inactive: CCRF-CEM 14.9 µM | EKVX 37.2 µM | HCC 2998 44.1 µM | HL-60 10.5 µM | KM12 33.8 µM | M14 18.2 µM | NCI-H23 29 µM | NCI-H522 7.83 µM | SF-268 43.5 µM | SF-295 39.1 µM | SK-MEL-28 43.4 µM | SN12C 57.7 µM | SNB-19 91.6 µM | SNB-75 55.5 µM | TK-10 26.3 µM | UACC-257 35.1 µM | UO-31 45.5 µM

CC(=O)O[C@H]1CC[C@@]2(C)C(=C/C(=N\[N+](=O)[O-])[C@H]3C4CCC([C@H](C)CCCC(C)C)[C@@]4(C)CCC32)C1 (stereo not given in full)
inactive: A498 > 100 µM | EKVX > 100 µM | HL-60 > 100 µM | M14 > 100 µM | NCI-H23 > 100 µM | NCI-H522 > 100 µM | SF-268 > 100 µM | SF-295 > 100 µM | SK-MEL-28 > 100 µM | SN12C > 100 µM | SNB-19 > 100 µM | SNB-75 > 100 µM | TK-10 > 100 µM | UACC-257 > 100 µM | UO-31 > 100 µM

CCOc1ccc(/N=C(/NC(=O)c2ccccc2)SC)cc1
inactive: A498 > 100 µM | CCRF-CEM 87.1 µM | EKVX > 100 µM | HCC 2998 > 100 µM | HL-60 > 100 µM | M14 > 100 µM | NCI-H23 > 100 µM | SF-268 > 100 µM | SF-295 > 100 µM | SK-MEL-28 > 100 µM | SN12C > 100 µM | SNB-19 > 100 µM | SNB-75 > 100 µM | TK-10 > 100 µM | UACC-257 > 100 µM | UO-31 > 100 µM

N#CC(NNC(=O)Cc1ccccc1)c1ccc(O)cc1 (stereo not given)
inactive: CCRF-CEM > 100 µM | HL-60 > 100 µM | KM12 > 100 µM | M14 > 100 µM | NCI-H23 > 100 µM | NCI-H522 > 100 µM | SF-268 > 100 µM | SF-295 > 100 µM | SK-MEL-28 > 100 µM | SN12C > 100 µM | SNB-75 28.2 µM | TK-10 > 100 µM | UACC-257 > 100 µM | UO-31 > 100 µM

C#CCN(C(=O)C(F)(F)F)c1ccc(C(=O)c2ccc(N(CC#C)C(=O)C(F)(F)F)cc2)cc1
inactive: CCRF-CEM 25.1 µM | EKVX 61 µM | HCC 2998 40.9 µM | HL-60 12.9 µM | KM12 32.2 µM | M14 33.2 µM | NCI-H23 23.2 µM | NCI-H522 14.9 µM | SF-268 38.4 µM | SF-295 37.8 µM | SK-MEL-28 35.3 µM | SN12C 34.9 µM | SNB-19 46.5 µM | SNB-75 43.4 µM | TK-10 48.6 µM | UACC-257 26.4 µM | UO-31 59.7 µM

O=[N+]([O-])c1ccc(/C=N/C2CCCCC2)cc1
inactive: A498 > 100 µM | CCRF-CEM > 100 µM | EKVX > 100 µM | HCC 2998 > 100 µM | HL-60 > 100 µM | KM12 > 100 µM | M14 > 100 µM | NCI-H23 > 100 µM | SF-268 > 100 µM | SF-295 > 100 µM | SK-MEL-28 > 100 µM | SN12C > 100 µM | SNB-19 > 100 µM | SNB-75 > 100 µM | TK-10 > 100 µM | UACC-257 > 100 µM | UO-31 > 100 µM

CCOC(=O)C1=C(Nc2ccc(Br)cc2)OC/C1=N\NC(=O)c1ccccc1O
inactive: A498 > 47.3 µM | CCRF-CEM 9.66 µM | EKVX 18.8 µM | HCC 2998 20.3 µM | HL-60 20.4 µM | KM12 21.5 µM | M14 23.5 µM | NCI-H23 6.52 µM | NCI-H522 7.98 µM | SF-268 12 µM | SF-295 14.2 µM | SK-MEL-28 > 81.3 µM | SN12C 52.4 µM | SNB-19 10.9 µM | TK-10 > 34.8 µM | UACC-257 23 µM | UO-31 9.71 µM

O=C(NC1C=Nc2ccccc2NC1=O)c1ccccc1Cl (stereo not given)
inactive: A498 28.8 µM | CCRF-CEM 14 µM | EKVX 74.8 µM | HCC 2998 56.4 µM | HL-60 13.5 µM | KM12 50.7 µM | M14 80.5 µM | NCI-H23 43.9 µM | NCI-H522 20.1 µM | SF-268 51.9 µM | SF-295 57.1 µM | SK-MEL-28 > 100 µM | SN12C 64.4 µM | SNB-19 > 100 µM | SNB-75 50 µM | TK-10 46.2 µM | UACC-257 38.5 µM | UO-31 24.9 µM

C[Si](C)(C)C(CCCCSc1ccccc1)(Sc1ccccc1)Sc1ccccc1
inactive: A498 > 100 µM | CCRF-CEM > 100 µM | EKVX > 100 µM | HCC 2998 > 100 µM | HL-60 > 100 µM | KM12 > 100 µM | NCI-H23 68.1 µM | SF-268 > 100 µM | SF-295 > 100 µM | SK-MEL-28 > 100 µM | SN12C > 100 µM | SNB-19 > 100 µM | SNB-75 > 100 µM | TK-10 > 100 µM | UACC-257 > 100 µM | UO-31 > 100 µM

Oc1cc(C2OCCCO2)cc(O)c1O
inactive: A498 > 100 µM | CCRF-CEM > 100 µM | EKVX > 100 µM | HCC 2998 > 100 µM | HL-60 > 100 µM | KM12 > 100 µM | M14 > 100 µM | NCI-H23 > 100 µM | NCI-H522 > 100 µM | SF-268 > 100 µM | SF-295 > 100 µM | SK-MEL-28 > 100 µM | SN12C > 100 µM | SNB-19 > 100 µM | SNB-75 > 100 µM | TK-10 > 100 µM | UACC-257 > 100 µM | UO-31 > 100 µM

CC(=O)NC(CC(C)C)C(=O)NC(Cc1ccccc1)C(=S)N1CCCC1 (stereo not given)
inactive: A498 > 100 µM | CCRF-CEM > 100 µM | EKVX > 100 µM | HCC 2998 > 100 µM | HL-60 > 100 µM | KM12 > 100 µM | M14 > 100 µM | NCI-H23 > 100 µM | NCI-H522 > 100 µM | SF-268 > 100 µM | SF-295 > 100 µM | SK-MEL-28 > 100 µM | SN12C > 100 µM | SNB-19 > 100 µM | SNB-75 > 100 µM | TK-10 > 100 µM | UACC-257 > 100 µM | UO-31 > 100 µM

COC(=O)C1CCc2c1c(=O)n1c([nH]c3ccccc31)c2C#N (stereo not given)
inactive: A498 > 100 µM | CCRF-CEM > 100 µM | EKVX > 100 µM | HCC 2998 > 100 µM | HL-60 > 100 µM | KM12 > 100 µM | M14 > 100 µM | NCI-H23 > 100 µM | NCI-H522 > 100 µM | SF-268 > 100 µM | SF-295 > 100 µM | SK-MEL-28 > 100 µM | SNB-19 > 100 µM | SNB-75 > 100 µM | TK-10 > 100 µM | UACC-257 > 100 µM | UO-31 > 100 µM

CC(C)(C)c1ccc(OC2CCO2)cc1 (stereo not given)
inactive: A498 43.2 µM | CCRF-CEM 24.7 µM | EKVX 35.1 µM | HCC 2998 27.5 µM | KM12 25.9 µM | M14 42.6 µM | NCI-H23 55.5 µM | NCI-H522 23.6 µM | SF-268 33.6 µM | SF-295 46.9 µM | SK-MEL-28 98.6 µM | SN12C 18.7 µM | SNB-19 52.2 µM | SNB-75 53.8 µM | TK-10 42.4 µM | UACC-257 31.6 µM | UO-31 58.2 µM

COC(=O)C1C=CCC2CCCCC21N1CCCC1 (stereo not given)
inactive: A498 > 100 µM | CCRF-CEM 53.1 µM | EKVX > 100 µM | HCC 2998 69.2 µM | HL-60 19.7 µM | KM12 53.6 µM | M14 > 100 µM | NCI-H522 53.8 µM | SF-268 63.5 µM | SF-295 > 100 µM | SK-MEL-28 98.9 µM | SN12C 78.5 µM | SNB-19 82.2 µM | SNB-75 44 µM | TK-10 > 100 µM | UACC-257 > 100 µM | UO-31 > 100 µM

COC(=O)/C(C)=C(/CCC1(C)OCCO1)O[Si](C)(C)C
inactive: CCRF-CEM > 100 µM | EKVX > 100 µM | HCC 2998 > 100 µM | HL-60 > 100 µM | KM12 > 100 µM | M14 > 100 µM | NCI-H23 > 100 µM | SF-268 > 100 µM | SF-295 > 100 µM | SN12C > 100 µM | SNB-19 > 100 µM | SNB-75 20.5 µM | TK-10 > 100 µM | UACC-257 > 100 µM | UO-31 95.3 µM
